Test results taken from PubChem BioAssay (NCI).
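Compound exposure: 48 hours, 5 concentrations, 96-well plates. TGI denotes the concentration required for complete inhibition of growth.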

Columns and labels:
Assay in all cases: NCI anticancer screen, dose series, 48 h
ACHN renal = test system: ACHN renal
EKVX NSCLC = test system: EKVX NSCLC
HCT-116 colon = test system: HCT-116 colon
K-562 leukemia = test system: K-562 leukemia
KM12 colon = test system: KM12 colon
LOX IMVI melanoma = test system: LOX IMVI melanoma
NCI-H23 lung = test system: NCI-H23 lung
OVCAR-3 ovarian = test system: OVCAR-3 ovarian
PC-3 prostate = test system: PC-3 prostate
SK-MEL-2 melanoma = test system: SK-MEL-2 melanoma
SNB-75 CNS = test system: SNB-75 CNS
SR leukemia = test system: SR leukemia
TK-10 renal = test system: TK-10 renal
UACC-257 melanoma = test system: UACC-257 melanoma

Row | Structure (SMILES) | TGI (ACHN renal) | TGI (EKVX NSCLC) | TGI (HCT-116 colon) | TGI (K-562 leukemia) | TGI (KM12 colon) | TGI (LOX IMVI melanoma) | TGI (NCI-H23 lung) | TGI (OVCAR-3 ovarian) | TGI (PC-3 prostate) | TGI (SK-MEL-2 melanoma) | TGI (SNB-75 CNS) | TGI (SR leukemia) | TGI (TK-10 renal) | TGI (UACC-257 melanoma)
1 | CC(=O)CSc1c(-c2ccccc2)c(=O)n(-c2ccccc2)c(=S)n1-c1ccccc1 | > 100 µM | > 100 µM | > 100 µM | > 100 µM | > 100 µM | > 100 µM | > 100 µM | > 100 µM | > 100 µM | > 100 µM | > 100 µM | > 100 µM | > 100 µM | > 100 µM
2 | O=c1ccn(C2OC(CO)C(O)C2[Se]c2ccccc2)c(=O)[nH]1 (configuration not stated) | > 100 µM | > 100 µM | > 100 µM | > 100 µM | > 100 µM | > 100 µM | > 100 µM | > 100 µM | > 100 µM | > 100 µM | > 100 µM | > 100 µM | 0.685 µM | 14.2 µM
3 | COCCCNC(=O)C1=C(C)NC(C)=C(C(=O)NCCCOC)C1 | > 100 µM | 40.5 µM | > 100 µM | > 100 µM | > 100 µM | > 100 µM | > 100 µM | > 100 µM | > 100 µM | > 100 µM | > 100 µM | > 100 µM | > 100 µM | > 100 µM
4 | CN(C)P(=O)(Oc1ccc(CC(NC(=O)OCc2ccccc2)C(=O)OCc2ccccc2)cc1)N(C)C (configuration not stated) | 33.9 µM | 32.2 µM | 31.3 µM | 64.1 µM | 40.3 µM | 34.5 µM | 28.1 µM | 11.4 µM | 29.9 µM | 31.5 µM | 33.3 µM | 24.6 µM | 47 µM | 47.5 µM
5 | CCCCCCOc1ccc(C(=O)NO)cc1 | 21.5 µM | 52.7 µM | 21.5 µM | 57.7 µM | 27.6 µM | 20.7 µM | 23 µM | 28.6 µM | 35.2 µM | 39 µM | > 67.2 µM | 23.6 µM | > 100 µM | > 91.5 µM
6 | CCOC(=O)CSc1nnc2cc(CN3CCCC3)c(-c3ccc(Cl)cc3)nn12 | > 100 µM | > 100 µM | > 100 µM | > 100 µM | > 100 µM | > 100 µM | > 100 µM | > 100 µM | > 100 µM | > 100 µM | > 100 µM | > 100 µM | > 100 µM | > 100 µM
7 | O=C(Nc1ccccc1)N(C1=NCC(CI)S1)c1ccc(F)cc1F (configuration not stated) | > 100 µM | > 100 µM | > 100 µM | > 100 µM | > 100 µM | 35.2 µM | > 100 µM | > 100 µM | > 100 µM | > 100 µM | > 100 µM | 65.7 µM | > 100 µM | 84 µM
8 | CCN(CC)CCNC(=O)c1cc2cc(NC(=O)c3cc4cc(NC(=O)c5cc6cc(N)ccc6[nH]5)ccc4[nH]3)ccc2[nH]1 | > 100 µM | > 100 µM | – | > 100 µM | > 100 µM | > 100 µM | > 100 µM | > 100 µM | > 100 µM | > 100 µM | > 100 µM | > 100 µM | > 100 µM | > 100 µM
9 | COc1cc(S(=O)(=O)Nc2ccc(-c3csc(N)n3)cc2)ccc1Cl | 32.8 µM | 30.2 µM | 29.7 µM | 44.3 µM | – | 34.8 µM | 40.1 µM | 28.9 µM | 29.7 µM | 35 µM | 39.2 µM | 48.4 µM | – | –
10 | C=C(C)[C@@]1(OC(=O)c2cc([N+](=O)[O-])cc([N+](=O)[O-])c2)C[C@@H]2CCCC[C@@H]21 | > 100 µM | > 100 µM | > 100 µM | > 100 µM | > 100 µM | > 100 µM | > 100 µM | – | > 100 µM | > 100 µM | > 100 µM | > 100 µM | > 100 µM | > 100 µM
11 | CCOC(=O)c1cnc2n(c1=N)[C@H]1CCCC[C@@H]1N2 | > 100 µM | > 100 µM | > 100 µM | > 100 µM | > 100 µM | > 100 µM | > 100 µM | > 100 µM | > 100 µM | > 100 µM | > 100 µM | > 100 µM | – | > 100 µM
12 | Cc1ncc2c(=O)c3c(oc2n1)c1ccccc1n3Cc1ccccc1 | > 100 µM | > 100 µM | > 100 µM | > 100 µM | > 100 µM | > 100 µM | > 100 µM | > 100 µM | > 100 µM | – | > 100 µM | > 100 µM | > 100 µM | > 100 µM
13 | CCN(CC)c1ccc2cc(C(=O)Nc3ccccc3)c(=N)oc2c1 | > 100 µM | > 100 µM | > 100 µM | > 100 µM | > 100 µM | > 100 µM | – | – | > 100 µM | > 100 µM | > 100 µM | > 100 µM | > 100 µM | > 100 µM
14 | Cc1nc(N/N=C/c2ccccc2Cl)[nH]c(=O)c1CCO | > 100 µM | > 100 µM | > 100 µM | > 100 µM | > 100 µM | > 100 µM | > 100 µM | 46.5 µM | > 100 µM | – | 41.4 µM | > 100 µM | > 100 µM | > 100 µM
15 | Nc1cc(N2CCCC2)nc(=O)n1-c1ccccc1 | > 100 µM | > 100 µM | > 100 µM | > 100 µM | > 100 µM | > 100 µM | > 100 µM | – | > 100 µM | > 100 µM | > 100 µM | > 100 µM | > 100 µM | > 100 µM
16 | N#C/C(C(=O)Nc1ccc(Cl)cc1)=C(/N)N1CCCCC1 | > 100 µM | > 100 µM | > 100 µM | > 100 µM | > 100 µM | > 100 µM | > 100 µM | > 100 µM | > 100 µM | > 100 µM | 72.3 µM | > 100 µM | – | > 100 µM
